# Structures can show the parent of a compound that is named as a salt.
# System: neurons and astrocytes
# Assay: LC-MS/MS identification of succinated proteins, neurons and astrocytes overall
# Type: cell-based
# Details: both neurons and astrocytes
# Description: For the identification of succination sites, 60 μg of protein from primary neurons, 200 μg of protein from primary astrocytes or 120 μg of protein from differentiated N1E-115 neurons were resolved by SDS-PAGE, and the gels were stained with Coomassie Brilliant Blue. After de-staining, all protein bands were excised from the gels and subjected to in-gel digestion with trypsin. Briefly, proteins were reduced with 10 mM dithiothreitol and alkylated with 170 mM 4-vinylpyridine. Trypsin digestion was carried out overnight at 37° C. in the presence of 1.5 ng sequence grade modified trypsin (Promega®, Madison, WI) in 50 mM ammonium bicarbonate. After gel extraction, the peptides were re-suspended in 1% acetic acid and analyzed on a DionexTM […] system (Thermo ScientificTM, Rockford, IL) coupled to an Orbitrap Velos ProTM mass spectrometer (Thermo ScientificTM, Rockford, IL). The LC solvents were 2% acetonitrile/0.1% formic acid (Solvent A) and 80% acetonitrile/0.1% formic acid (Solvent B). […] The data-dependent acquisition (DDA) data were analyzed using Proteome DiscovererTM 1.4 software with SEQUEST search engine against the uniprot_ref_mouse database (2014-10-03 version, 52,474 proteins) or uniprot_ref_rat database (2011-5-11 version, 39765 proteins) with Xcorr>1 validation (+2) and an allowance for 2 missed cleavages. […]
smiles,measurement,value
"COC(=O)/C=C/C(=O)OC [DMF, dimethyl fumarate]",number of distinct protein subunits directly modified by either DMF or MMF,24

# From patent publication US20260133203A1, “DETECTION OF FUMARATE-DERIVED MODIFICATION IN A TEST SAMPLE” (UNIVERSITY OF SOUTH CAROLINA, priority 2017, published 2026)
